Assay results published in US20250302714A1, “ORAL HEALTH AGENT AND COMPOSITION FOR USE IN DOMESTIC ANIMALS” (priority 2022, published 2025).

Tested on: canine oral microbiome
Experiment: Controlled clinical study in beagles: oral swab sequencing of the canine oral microbiome
Format: in vivo, dog (beagles)
Conditions: 14 beagles, arginine powder mixture (1.5% L-arginine) twice daily after meals, 28 days post dental cleaning, oral swabs, global sequencing
Protocol: In vitro and in vivo studies were required to assert the activity of arginine in oral care of domestic animals. […] Controlled clinical studies were performed in 14 beagles fed an arginine powder mixture (Table 2) twice daily after meals. Dental assessments were performed using photographic inspection after the application of a biofilm disclosing agent. Animals were fed the mixture for 28 days prior to final assessment. Oral swab samples were collected at days 0, 7, 14 and 28 and subjected to global sequencing studies.
In this study bacterial populations were clustered and plotted in separate figures. Data was obtained after 28 days of treatment post dental cleaning.

N=C(N)NCCC[C@H](N)C(=O)O [arginine, L-arginine]
relative abundance of oral bacterial populations, treated vs control animals: shift towards healthy oral bacterial populations
